Data reported in patent US20080312128A1, “Cellular Biomarker Antioxidant Assay and Uses Thereof” (priority 2005, published 2008).
Read-outs that look alike come from different tables or passages of the source.

Columns and labels:
[1] = test system: JunB; test: H2O2-induced JunB transcription in cultured RPE cells, qPCR; assay type: cell-based, human; settings: for Fold change, JunB, 1-Hr / Fold change, JunB, 4-Hr: ARPE-19 cells
Protocol: (§1) Human retinal pigment epithelial (RPE) cells (ARPE-19) were cultured in DMEM/F12 media supplemented with 10% fetal bovine serum (FBS, Atlanta Biologicals, Norcross, Ga.) plus L-glutamine, penicillin, and streptomycin in an atmosphere of humidified 95% air and 5% CO2 at 37° C. until confluent in single wells of 6-well plates. The cells were initially grown in DMEM/F12 with FBS to reduce the time to reach confluence. Cells were then rinsed and fed with NR-1 media (BioSource, Camarillo, Calif.). NR-1 is a chemically defined tissue culture medium supplemented with EGF, insulin, hydrocortisone, and transferrin. After feeding with NR-1, the confluent cells were cultured for 3 days to stabilize gene expression.
(§2) The OS was not rinsed from the culture; rather, the NR-1 medium was aspirated and TRI Reagent (Sigma, St. Louis, Mo.) was immediately added to lyse the cells and stabilize the RNA at the designated time-points.
(§3) Total cellular RNA was isolated from the cells at time points 0, 1, and 4 hours using TRI reagent as described above using the protocol recommended by the manufacturer. The RNA was cleaned of trace DNA contaminants by treatment with DNA-Free (Ambion, Austin, Tex.) and the concentration was measured by spectrophotometry. The purified RNA was dissolved in DEPC-treated double distilled water at the concentration of 0.2 mg/ml. and stored at −80° C.
(§4) One μg of total cellular RNA was reversed transcribed (RT) in 20 μL of reaction volume using the Reverse Transcription System using the manufacturer's recommended protocol (Promega, Madison, Wis.). The RT product was diluted 1:5 with DNase-free water and quantitative PCR (qPCR) amplification was performed in 50 μl of buffer containing 1×SYBR® Green PCR Master mix (ABI), optimized forward and reverse qPCR primers and 5 μl of the 1:5 diluted RT product. The qPCR reaction was started at a 50° C. hold for 2 minutes, then 95° C. hold for 10 minutes, followed by 40 cycles of 95° C. for 15 seconds, and 60° C. for 1 minute. The reaction was performed using the ABI PRISM® 7700 Sequence Detection System.

[2] = test system: HO-1; test: H2O2-induced HO-1 transcription in cultured RPE cells, qPCR; assay type: cell-based, human; settings: for Fold change, HO-1, 1-Hr / Fold change, HO-1, 4-Hr: ARPE-19 cells
[3] = test system: cFos; test: H2O2-induced c-Fos transcription in cultured RPE cells, qPCR; assay type: cell-based, human; settings: for Fold change in expression, cFos, 1-Hr / Fold change in expression, cFos, 4-Hr: ARPE-19 cells
Protocol: as §1, §2, §3, §4

[4] = test system: CRYBA; settings: ARPE-19 cells
Protocol: as §1, §2, §3, §4

[5] = test system: CRYAA, CRYBB, and CRYGS crystallin genes; test: H2O2-induced transcription of crystallin genes in cultured RPE cells, qPCR; assay type: cell-based, human; settings: 100 μM and 500 μM H2O2, 1 and 4 hours
Protocol: Transcription of the above-identified crystallin genes was quantified at 1 and 4 hours in cells exposed to 100 μM and 500 μM H2O2-induced OS, and compared to controls.

[6] = test system: ARPE-19 cells; settings: confluent cell culture, MTT
[7] = test system: ATF3; test: H2O2-induced ATF3 transcription in cultured RPE cells, qPCR; assay type: cell-based, human; settings: for Fold change in expression, ATF3, 1-Hr / Fold change in expression, ATF3, 4-Hr: ARPE-19 cells
Protocol: as §1, §2, §3, §4

[8] = test system: FosB; settings: ARPE-19 cells
Protocol: For OS studies, ARPE19 cells were incubated for 1 hour at 37° C. in conditioned NR-1 media containing 50-500 μM H202. Cells were either not rinsed (1-, 2-, and 4-hour isolations) or rinsed using the Media Rinse 2 method (4-, 8-, and 24-hour isolations). At designated time-points, NR-1 medium was aspirated and the total cellular RNA was immediately isolated in TRI reagent (Sigma). Single wells were used in each plate to minimize any influence of temperature shifts on gene expression. All procedures were performed in a dim red light environment to reduce any influence of light on gene expression. RNA was isolated either before the onset of OS(O-hour control), or at 1, 2, 4, 8, or 24 hours after the start of the 1-hour OS treatment.
Assays of oxidative stress as described above with RPE cells were performed using the “no touch” technique, to determine whether OS-specific responses of FosB gene expression occurred during the first 8 hours after induction of stress. In addition, a dose-response study of FosB gene expression was performed to determine whether the degree of OS could be quantified using this molecular response.
as §1, §2, §3, §4

[9] = test system: FosL; test: H2O2-induced FosL transcription in cultured RPE cells, qPCR; assay type: cell-based, human
Protocol: as §1, with “After feeding with NR-1, the confluent cells were cultured for 3 days to stabilize gene expression.” left out
Total cellular RNA was isolated from the cells at time points 0, 1, and 4 hours using TRI reagent as described above using the protocol recommended by the manufacturer. The RNA was cleaned of trace DNA contaminants by treatment with DNA-Free (Ambion, Austin, Tex.) and the concentration was measured by spectrophotometry. […]
One μg of total cellular RNA was reversed transcribed (RT) in 20 μL of reaction volume using the Reverse Transcription System using the manufacturer's recommended protocol (Promega, Madison, Wis.). The RT product was diluted 1:5 with DNase-free water and quantitative PCR (qPCR) amplification was performed in 50 μl of buffer containing 1×SYBR® Green PCR Master mix (ABI), optimized forward and reverse qPCR primers and 5 μl of the 1:5 diluted RT product. […]

OO [H2O2]
Level of JunB transcriptional activation ([1]; 4 hours, all levels of OS ≧about 100 μM H2O2): ~4 fold | Fold change, JunB, 1-Hr ([1]; 50 μM H2O2, 1 h): 0 fold | Fold change, JunB, 4-Hr ([1]; 50 μM H2O2, 4 h): 1 fold | Fold change, JunB, 1-Hr ([1]; 100 μM H2O2, 1 h): 0 fold | Fold change, JunB, 4-Hr ([1]; 100 μM H2O2, 4 h): 8 fold | Fold change, JunB, 1-Hr ([1]; 200 μM H2O2, 1 h): 0 fold | Fold change, JunB, 4-Hr ([1]; 200 μM H2O2, 4 h): 4 fold | Fold change, JunB, 1-Hr ([1]; 350 μM H2O2, 1 h): 0 fold | Fold change, JunB, 4-Hr ([1]; 350 μM H2O2, 4 h): 4 fold | Fold change, JunB, 1-Hr ([1]; 500 μM H2O2, 1 h): 3 fold | Fold change, JunB, 4-Hr ([1]; 500 μM H2O2, 4 h): 4 fold | H2O2 level above which HO-1 threshold response is seen [2]: above 50 μM | Fold change, HO-1, 1-Hr ([2]; 50 μM H2O2, 1 h): 2 fold | Fold change, HO-1, 4-Hr ([2]; 50 μM H2O2, 4 h): 2 fold | Fold change, HO-1, 1-Hr ([2]; 100 μM H2O2, 1 h): 2 fold | Fold change, HO-1, 4-Hr ([2]; 100 μM H2O2, 4 h): 8 fold | Fold change, HO-1, 1-Hr ([2]; 200 μM H2O2, 1 h): 2 fold | Fold change, HO-1, 4-Hr ([2]; 200 μM H2O2, 4 h): 8 fold | Fold change, HO-1, 1-Hr ([2]; 350 μM H2O2, 1 h): 2 fold | Fold change, HO-1, 4-Hr ([2]; 350 μM H2O2, 4 h): 6 fold | Fold change, HO-1, 1-Hr ([2]; 500 μM H2O2, 1 h): 2 fold | Fold change, HO-1, 4-Hr ([2]; 500 μM H2O2, 4 h): 6 fold | Fold change in expression, cFos, 1-Hr ([3]; 50 μM H2O2, 1 h): 0 fold | Fold change in expression, cFos, 4-Hr ([3]; 50 μM H2O2, 4 h): 1 fold | Fold change in expression, cFos, 1-Hr ([3]; 100 μM H2O2, 1 h): 0 fold | Fold change in expression, cFos, 4-Hr ([3]; 100 μM H2O2, 4 h): 2 fold | Fold change in expression, cFos, 1-Hr ([3]; 200 μM H2O2, 1 h): 4 fold | Fold change in expression, cFos, 4-Hr ([3]; 200 μM H2O2, 4 h): 3 fold | Fold change in expression, cFos, 1-Hr ([3]; 350 μM H2O2, 1 h): 7 fold | Fold change in expression, cFos, 4-Hr ([3]; 350 μM H2O2, 4 h): 16 fold | Fold change in expression, cFos, 1-Hr ([3]; 500 μM H2O2, 1 h): 12 fold | Fold change in expression, cFos, 4-Hr ([3]; 500 μM H2O2, 4 h): 32 fold | Increase in transcription of c-Fos (maximum) ([3]; after 1 hour of OS, 0-500 μM H2O2): up to 12 fold | Elevation of c-Fos transcription over controls ([3]; after 4 hours of OS): 8 fold | Fold change in expression, CRYBA, 1-Hr ([4]; 50 μM H2O2, 1 h): 0 fold | Fold change in expression, CRYBA, 4-Hr ([4]; 50 μM H2O2, 4 h): −2 fold | Fold change in expression, CRYBA, 1-Hr ([4]; 100 μM H2O2, 1 h): 1 fold | Fold change in expression, CRYBA, 4-Hr ([4]; 100 μM H2O2, 4 h): 3 fold | Fold change in expression, CRYBA, 1-Hr ([4]; 200 μM H2O2, 1 h): 2 fold | Fold change in expression, CRYBA, 4-Hr ([4]; 200 μM H2O2, 4 h): 1 fold | Fold change in expression, CRYBA, 1-Hr ([4]; 350 μM H2O2, 1 h): 3 fold | Fold change in expression, CRYBA, 4-Hr ([4]; 350 μM H2O2, 4 h): 3 fold | Fold change in expression, CRYBA, 1-Hr ([4]; 500 μM H2O2, 1 h): 4 fold | Fold change in expression, CRYBA, 4-Hr ([4]; 500 μM H2O2, 4 h): 4 fold | Induction of CRYAA, CRYBB, and CRYGS crystallin genes [5]: does not induce | 500 μM H2O2 for up to 4-hours as percent of dose required to induce 10% cell death (LD10) [6]: 55% | Increase in ATF3 transcription ([7]; 1 hour after OS): ~3 fold | Fold change in expression, ATF3, 1-Hr ([7]; 50 μM H2O2, 1 h): 0 fold | Fold change in expression, ATF3, 4-Hr ([7]; 50 μM H2O2, 4 h): 0 fold | Fold change in expression, ATF3, 1-Hr ([7]; 100 μM H2O2, 1 h): 0 fold | Fold change in expression, ATF3, 4-Hr ([7]; 100 μM H2O2, 4 h): 0 fold | Fold change in expression, ATF3, 1-Hr ([7]; 200 μM H2O2, 1 h): 2 fold | Fold change in expression, ATF3, 4-Hr ([7]; 200 μM H2O2, 4 h): 3 fold | Fold change in expression, ATF3, 1-Hr ([7]; 350 μM H2O2, 1 h): 2 fold | Fold change in expression, ATF3, 4-Hr ([7]; 350 μM H2O2, 4 h): 8 fold | Fold change in expression, ATF3, 1-Hr ([7]; 500 μM H2O2, 1 h): 3 fold | Fold change in expression, FosB, 1-Hr ([8]; 50 μM H2O2, 1 h): 2 fold | Fold change in expression, FosB, 4-Hr ([8]; 50 μM H2O2, 4 h): 2 fold | Fold change in expression, FosB, 1-Hr ([8]; 100 μM H2O2, 1 h): 2 fold | Fold change in expression, FosB, 4-Hr ([8]; 100 μM H2O2, 4 h): 6 fold | Fold change in expression, FosB, 1-Hr ([8]; 200 μM H2O2, 1 h): 6 fold | Fold change in expression, FosB, 4-Hr ([8]; 200 μM H2O2, 4 h): 6 fold | Fold change in expression, FosB, 1-Hr ([8]; 350 μM H2O2, 1 h): 6 fold | Fold change in expression, FosB, 4-Hr ([8]; 350 μM H2O2, 4 h): 20 fold | Fold change in expression, FosB, 1-Hr ([8]; 500 μM H2O2, 1 h): 16 fold | Fold change in expression, FosB, 4-Hr ([8]; 500 μM H2O2, 4 h): 64 fold | Increase in FosL transcription compared to controls ([9]; 4 hours after OS, highest OS dose): 3 fold | Increase in FosL transcription ([9]; after 1 hour of OS, 100 μM and 500 μM H2O2): 2 fold
